Measured values: the supplement of paper PMC10307832

How the values were obtained:
Assay in all cases: relative viability (nuclei count vs DMSO), 5 days (fraction); higher = more cells survive
TPCA-1 + Pictilisib = compound: C1=CC(=CC=C1C2=CC(=C(S2)NC(=O)N)C(=O)N)F [TPCA-1] + CS(=O)(=O)N1CCN(Cc2cc3nc(-c4cccc5[nH]ncc45)nc(N4CCOCC4)c3s2)CC1 [Pictilisib] (partner 1 µM)
How it was run: (§1)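 Dosing by pin tool came one day after lung cancer cell lines were seeded in 1536-well plates, using either one drug or a fixed anchor-drug dose plus five library-drug doses (not always all listed) in √10 steps. After 5 days, nuclei were counted on 4× images. Relative viability is treated-well nuclei count divided by vehicle-well nuclei count, and values are medians of duplicate plates.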

[1] = compound: C1/C(=C\C2=CC=CS2)/C(=O)/C(=C/C3=CC=CS3)/C1 + CS(=O)(=O)N1CCN(Cc2cc3nc(-c4cccc5[nH]ncc45)nc(N4CCOCC4)c3s2)CC1 [Pictilisib] (partner 1 µM)
How it was run: as §1

[2] = compound: C[C@]12O[C@H](C[C@]1(O)CO)n1c3ccccc3c3c4c(c5c6ccccc6n2c5c31)CNC4=O [Lestaurtinib] + Cc1cc(Nc2cc(N3CCN(C)CC3)nc(Sc3ccc(NC(=O)C4CC4)cc3)n2)n[nH]1 [Tozasertib] (partner 0.1 µM)
How it was run: as §1

TPCA-1 + Trametinib = compound: C1=CC(=CC=C1C2=CC(=C(S2)NC(=O)N)C(=O)N)F [TPCA-1] + CC(=O)Nc1cccc(-n2c(=O)n(C3CC3)c(=O)c3c(Nc4ccc(I)cc4F)n(C)c(=O)c(C)c32)c1 [Trametinib] (partner 0.02 µM)
How it was run: as §1

Question: For UMC-11, which relative viability (TPCA-1 + Pictilisib; first compound 0.04 µM) is on record?
Answer: Its relative viability is 0.781.

Question: What about the relative viability (TPCA-1 + Pictilisib; first compound 0.1265 µM) of the same cell line?
Answer: The relative viability was 0.685.

Question: What about the relative viability (TPCA-1 + Pictilisib; first compound 0.4 µM) of the same cell line?
Answer: Its relative viability is 0.881.

Question: And the relative viability (TPCA-1 + Pictilisib; first compound 1.265 µM)?
Answer: Its relative viability is 0.735.

Question: What about the relative viability (TPCA-1 + Pictilisib; first compound 4 µM) of the same cell line?
Answer: Its relative viability is 0.127.

Question: What about the relative viability ([1]; first compound 0.2 µM) of the same cell line?
Answer: The relative viability was 0.829.

Question: What about the relative viability ([1]; first compound 0.6325 µM) of the same cell line?
Answer: Its relative viability is 0.962.

Question: And the relative viability ([1]; first compound 2 µM)?
Answer: The relative viability was 0.934.

Question: And the relative viability ([1]; first compound 20 µM)?
Answer: Its relative viability is 0.758.

Question: And the relative viability ([2]; first compound 0.005 µM)?
Answer: Its relative viability is 0.21.

Question: And the relative viability ([2]; first compound 0.01581 µM)?
Answer: The relative viability was 0.206.

Question: And the relative viability ([2]; first compound 0.05 µM)?
Answer: The relative viability was 0.217.

Question: What about the relative viability ([2]; first compound 0.1581 µM) of the same cell line?
Answer: The relative viability was 0.18.

Question: And the relative viability ([2]; first compound 0.5 µM)?
Answer: The relative viability was 0.179.

Question: What about the relative viability (TPCA-1 + Trametinib; first compound 0.04 µM) of the same cell line?
Answer: The relative viability was 0.648.

Question: What about the relative viability (TPCA-1 + Trametinib; first compound 0.1265 µM) of the same cell line?
Answer: Its relative viability is 0.612.

Question: What about the relative viability (TPCA-1 + Trametinib; first compound 0.4 µM) of the same cell line?
Answer: Its relative viability is 0.804.

Question: And the relative viability (TPCA-1 + Trametinib; first compound 1.265 µM)?
Answer: Its relative viability is 0.831.

Question: What about the relative viability (TPCA-1 + Trametinib; first compound 4 µM) of the same cell line?
Answer: Its relative viability is 0.152.
